Experimental data from the NIST ThermoML archive (doi:10.1021/je060457+).
Numbers after ± are expanded uncertainties.

Tests used:
[1] = 101 kPa, Liquid; for viscosity: Capillary tube (Ostwald / Ubbelohde) method; for mass density: Vibrating tube method
[2] = refractive index (Na D-line) (dimensionless); settings: 101.33 kPa, Liquid, Standard Abbe refractometry
[3] = refractive index (Na D-line) (dimensionless); xn = mol fraction of the nth substance listed; settings: 101 kPa, Liquid, Standard Abbe refractometry, x2 = 0
[4] = xn = mol fraction of the nth substance listed; settings: 101 kPa, Liquid, x2 = 0; for viscosity: Capillary tube (Ostwald / Ubbelohde) method; for mass density: Vibrating tube method

CNCCO [2-(methylamino)ethanol]
Settings | mass density, [1] [kg/m3] | refractive index, [2] | viscosity, [1] [mPa·s]
293.15 K | – | 1.4393 ± 0.0006 | –
298.15 K | 936.18 ± 0.76 | 1.4375 ± 0.0006 | 10.51 ± 0.16
303.15 K | 932.26 ± 0.76 | 1.4356 ± 0.0006 | 8.522 ± 0.13
308.15 K | – | 1.4339 ± 0.0007 | –
313.15 K | 924.42 ± 0.75 | 1.4318 ± 0.0007 | 5.833 ± 0.087
318.15 K | – | 1.4298 ± 0.0007 | –
323.15 K | 916.48 ± 0.74 | 1.4278 ± 0.0007 | 4.177 ± 0.063
333.15 K | 908.46 ± 0.73 | – | 3.108 ± 0.047
343.15 K | 900.3 ± 0.72 | – | 2.385 ± 0.036

O [water] + CNCCO
Settings | mass density, [4] [kg/m3] | refractive index, [3] | viscosity, [4] [mPa·s]
293.15 K | – | 1.3331 ± 0.0004 | –
298.15 K | – | 1.3326 ± 0.0004 | 0.8824 ± 0.011
303.15 K | – | 1.332 ± 0.0004 | 0.8047 ± 0.01
308.15 K | – | 1.3314 ± 0.0004 | –
313.15 K | 992.26 ± 0.23 | 1.3307 ± 0.0004 | 0.6596 ± 0.0084
318.15 K | – | 1.3299 ± 0.0004 | –
323.15 K | 988.05 ± 0.23 | 1.3291 ± 0.0004 | 0.5507 ± 0.0071
333.15 K | 983.19 ± 0.23 | – | 0.4703 ± 0.0061
343.15 K | 977.78 ± 0.23 | – | 0.4074 ± 0.0053
